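In this assay, cells in 96-well plates receive the compound at five concentrations for 48 hours. Endpoints are linearly interpolated between the surrounding concentrations. TGI denotes the concentration required for complete inhibition of growth.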
Assays:
Assay in all cases: NCI-60 cell line screen, 48 h
LXFL 529 NSCLC = system: LXFL 529 NSCLC
XF 498 CNS = system: XF 498 CNS
DLD-1 colon = system: DLD-1 colon
DMS 273 small cell lung = system: DMS 273 small cell lung
M19-MEL melanoma = system: M19-MEL melanoma
KM20L2 colon = system: KM20L2 colon
SNB-78 CNS = system: SNB-78 CNS
RXF-631 renal = system: RXF-631 renal
DMS 114 small cell lung = system: DMS 114 small cell lung
HOP-18 NSCLC = system: HOP-18 NSCLC

Row | Compound | TGI (LXFL 529 NSCLC) [µM] | TGI (XF 498 CNS) [µM] | TGI (DLD-1 colon) [µM] | TGI (DMS 273 small cell lung) [µM] | TGI (M19-MEL melanoma) [µM] | TGI (KM20L2 colon) [µM] | TGI (SNB-78 CNS) [µM] | TGI (RXF-631 renal) [µM] | TGI (DMS 114 small cell lung) [µM] | TGI (HOP-18 NSCLC) [µM]
1 | CCC(C)n1c(C)nc2c1C(=O)c1ccccc1C2=O (configuration not stated) | > 100 | > 100 | > 100 | > 100 | 37.5 | > 100 | > 100 |  |  | 
2 | CC1(C)CCC[C@@]2(C)C1CCC1(C)C(CCc3ccoc3)/C(=C/OS(=O)(=O)O)CCC12 (some centres not stated) (tested in a mixture with another compound) | > 100 | > 100 | > 100 | > 100 | > 100 | > 100 | > 100 | > 100 | > 100 | > 100
3 | O=C(/C=C/c1ccc(OCCCOc2ccc(/C=C/C(=O)c3ccccc3)cc2)cc1)c1ccccc1 | > 100 |  | > 100 | > 100 | > 100 | > 100 |  | > 100 | > 100 | 
4 | C=C(CN(C)C)C(=O)c1ccccc1C | 30.7 | > 75.6 | 45.8 | 75.8 | 53.5 | > 100 | > 100 | > 100 | 42.5 | > 52.4
5 | CCNC(C)Cc1ccccc1 (configuration not stated) | > 100 |  | > 100 | > 100 |  | > 100 | > 100 |  | > 100 | > 100
6 | OC1[C@H]([C@H]2CCCC[C@@H]2O)CCC[C@@H]1[C@@H]1CCCC[C@H]1O (some centres not stated) | > 100 | > 100 | > 100 | > 100 | > 100 | > 100 | > 100 |  | > 100 | > 100
7 | CN(C)CCOc1cccc2c1C(=O)c1ccccc1C2=O | 43.6 | 33 | 34.5 | 21.7 | 17.9 | 46.8 | 38.2 |  | 22.6 | 46.9
8 | CC(=O)OC12/C(=N/O)CCCCCC1c1ccccc12 (configuration not stated) | > 100 | > 100 |  | > 100 | > 100 | > 100 | > 100 |  | > 100 | > 100

Source: PubChem BioAssay (NCI)
